US20100323989A1, “PHARMACEUTICAL COMBINATIONS USEFUL FOR TREATING HCV” (Gilead Sciences, Inc., priority 2009, published 2010)
Several values for one entry are separate records, joined by “and”; a condition that tells them apart may be missing. Identical values can stand only once. Like-named read-outs stand apart in the source and are kept apart here.

How the values were obtained:
[1] = test system: HCV genotype 1b replicon cells (Huh-luc); assay: EC50 determination in HCV genotype 1b Huh-luc replicon cells (luciferase); format: cell-based; conditions: Hepatitis C virus, 72 h, 3 days, average ± standard deviation
Description: (§1) HCV genotype 1b replicon cells (Huh-luc) were obtained from Reblikon (Mainz, Germany). The replicon in these cells is designated I389luc-ubi-neo/NS3-3′/ET and encodes a selectable resistance marker (neomycin phosphotransferase) as well as the firefly luciferase reporter gene. Huh-luc cells were maintained in Dulbecco's Modified Eagle's Medium (DMEM; GIBCO, Carlsbad, Calif.) supplemented with 10% fetal bovine serum (FBS; Hyclone, Logan, Utah) and 0.5 mg/mL of G-418 (GIBCO). Cells were passaged twice a week and maintained at subconfluent levels.
Replicon cells were seeded in 96-well plates at a density of 5×10^3 cells per well in 100 μL of DMEM culture medium, excluding G-418. Compounds 1 and 2 were serially diluted 1:3 in 100% DMSO (Sigma). These serial dilutions were added to the cells at a 1:200 dilution to achieve a final concentration of 0.5% DMSO in a total volume of 200 μL. […] HCV replication levels in drug-treated samples were expressed as a percentage of those in untreated controls (defined as 100%), and data were fit to the logistic dose response equation y=a/(1+(x/b)c) using XLFit4 software (IDBS, Emeryville, Calif.). EC50 values were calculated from the resulting equations as described previously (Delaney, W. E., et al., Antimicrobial Agents Chemotherapy, 45(6):1705-1713 (2001)).

[2] = test system: HCV genotype 1b replicon cells (Huh-luc); assay: Combination study in Huh-luc replicon cells analysed with MacSynergy II; format: cell-based; conditions: Compound 1 in combination with Compound 2, MacSynergy II
Description: as §1
For each individual drug, the EC50 value was selected as the midpoint for the concentration range tested. Cells were incubated for three days and analyzed for luciferase expression as indicated above. For the combination study, two independent experiments were performed in triplicate.
The calculated volumes of surface deviations are expressed in nM2%. Per Prichard and Shipman, combination effects are defined as:
Highly synergistic if volumes >100 nM^2.
Slightly synergistic if volumes are >50 and ≦100 nM^2.
Additive if volumes are >−50 nM^2 and ≦50 nM^2.
Slightly antagonistic if volumes are >−100 nM^2 and ≦−50 nM^2.
Antagonistic if volumes are ≦−100 nM^2.

[3] = test system: 1b Con-1 PI-Luc replicon with NS5B polymerase mutation M423T; format: cell-based, HCV genotype 1b; conditions: ratio of mutant EC50 to wild type EC50, NS5B M423T
[4] = test system: 1b Con-1 PI-Luc replicon with NS5B polymerase mutation M414T; format: cell-based, HCV genotype 1b; conditions: ratio of mutant EC50 to wild type EC50, NS5B M414T
[5] = test system: 1b PI-luc replicon with NS3 protease mutation V36M; format: cell-based, HCV genotype 1b; conditions: ratio of mutant EC50 to wild type EC50, NS3 V36M
[6] = test system: 1b PI-luc replicon with NS3 protease mutation T54A; format: cell-based, HCV genotype 1b; conditions: ratio of mutant EC50 to wild type EC50, NS3 T54A
[7] = test system: 1b PI-luc replicon with NS3 protease mutation R155K; format: cell-based, HCV genotype 1b; conditions: ratio of mutant EC50 to wild type EC50, NS3 R155K
[8] = test system: 1b PI-luc replicon with NS3 protease mutation A156T; format: cell-based, HCV genotype 1b; conditions: ratio of mutant EC50 to wild type EC50, NS3 A156T
[9] = test system: 1b PI-luc replicon with NS3 protease mutation D168E; format: cell-based, HCV genotype 1b; conditions: ratio of mutant EC50 to wild type EC50, NS3 D168E
[10] = test system: 1b PI-luc replicon with NS3 protease mutation D168V; format: cell-based, HCV genotype 1b; conditions: ratio of mutant EC50 to wild type EC50, NS3 D168V
[11] = Pharmacokinetic drug-drug interaction study, single dose with multiple-dose partner, healthy subjects (Example 6); format: in vivo, human; conditions: for AUC(0-t) / AUC(0-inf) / Cmax / half-life: human, plasma, Group 3, human; for AUC(0-t): read-out: Compound 2 AUC0-last, Mean (% CV); for AUC(0-inf): read-out: Compound 2 AUCinf, Mean (% CV); for Cmax: read-out: Compound 2 Cmax, Mean (% CV); for half-life: read-out: Compound 2 T1/2, Median (min, max) (converted)
Description: In this study, healthy subjects were randomized into one of the following three treatment groups: […] Treatment Group 3 (N=20): […] Serial blood samples for analysis of plasma concentrations of Compound 2 were collected up to 72 hours post-morning dose on Days 1 and 10 to determine systemic drug exposure.

[12] = test system: HCV 1b-con replicon cells; assay: Long-term (20 days, 6 passages) treatment of HCV replicon cells, HCV RNA by Real-Time RT PCR; format: cell-based, HCV genotype 1b; conditions: from baseline, compounds at 10 times their EC50, mean ± SD
Description: as §1
Both compounds were used at concentrations 10 times over their respective EC50 values. In brief, replicon cells (10^6 cells) were plated in a T75 flask in 15 mL of supplemented DMEM without G418. […] At each passage, cells were trypsinized, 10^6 cells were frozen in […] of RLT RNA lysis buffer (QIAGEN), and an additional 10^6 cells were seeded into another T75 flask with fresh medium and inhibitors. At the end of the assay, RNA was extracted from frozen replicon cells saved at the time of passage using QIAGEN RNeasy spin kit and was analyzed in a Real-Time RT PCR assay (Applied Biosystems).

[13] = Multiple-dose pharmacokinetic interaction study in healthy subjects (Example 5); format: in vivo, human; conditions: plasma, human, oral, Compound 2 (75 mg BID) alone, Day 7
[14] = Group 3, Compound 1 + Compound 2 / Compound 2 alone
[15] = Group 3, Compound 2 75 mg with Compound 1 40 mg BID vs Compound 2 75 mg alone
[16] = 75 mg, Compound 2 75 mg SD alone
[17] = Compound 2 75 mg SD + Compound 1 40 mg BID

COc1ccc2c(O[C@@H]3C[C@H]4C(=O)N[C@]5(P(=O)(O)Cc6c(F)cccc6F)C[C@H]5CCCCCCC[C@H](NC(=O)OC5CCCC5)C(=O)N4C3)cc(-c3csc(NC(C)C)n3)nc2c1Cl [Compound 2]
EC50 [1]: 11 ± 3 nM | Interaction [2]: additive | Fold Resistance M423T [3]: 1.1 fold | Fold Resistance M414T [4]: 2.0 fold | Fold Resistance V36M [5]: 3.0 fold | Fold Resistance T54A [6]: 0.6 fold | Fold Resistance R155K [7]: 566.3 fold | Fold Resistance A156T [8]: 1882.4 fold | Fold Resistance D168E [9]: 120.0 fold | Fold Resistance D168V [10]: 1832.3 fold | Compound 2 AUC0-last, % Geometric Least-Squares Mean Ratio (90% CI) [11, 14]: 83.8 (75.5, 93.2) % | Compound 2 AUCinf, % Geometric Least-Squares Mean Ratio (90% CI) [11, 14]: 84.9 (76.6, 94.1) % | Compound 2 Cmax, % Geometric Least-Squares Mean Ratio (90% CI) [11, 14]: 81.3 (72.5, 91.1) % | Median terminal elimination half-lives of Compound 2, comparison between the two treatments ([11]; Group 3, Compound 2 75 mg alone vs with Compound 1 40 mg BID): similar | decrease in AUC0-last of Compound 2 [11, 15]: 16% | decrease in AUCinf of Compound 2 [11, 15]: 15% | decrease in Cmax of Compound 2 [11, 15]: 19% | AUC(0-t) [11, 16]: 8790 ng·h/mL | AUC(0-inf) [11, 16]: 9460 ng·h/mL | Cmax [11, 16]: 1040 ng/mL | half-life [11, 16]: 5.05 h | AUC(0-t) [11, 17]: 7270 ng·h/mL | AUC(0-inf) [11, 17]: 7920 ng·h/mL | Cmax [11, 17]: 830 ng/mL | half-life [11, 17]: 6.06 h | HCV RNA Change in Log10, Passage 5 [12]: −2.9 ± 0.2 Log10 | HCV RNA Change in Log10, Passage 6 [12]: −3.1 Log10 and −3.1 ± 0.4 Log10 | Cmax ([13]; read-out: Compound 2 Cmax, Mean (% CV)): 4500 ng/mL | concentration at 12 h ([13]; read-out: Compound 2 Ctau, Mean (% CV)): 1550 ng/mL
